Test results published in ChEMBL document CHEMBL1141575, “Preparation and in vitro biological evaluation of tetrapyrrole ethanolamide derivatives as potential anticancer agents” (Bioorg Med Chem Lett, 2008).

Experiments:
[1] = test system: HeLa; test: Survival of human HeLa cells at 0.01 uM under deem light after 96 hrs by MTT assay relative to control; type: functional; settings: read-out: Survival
[2] = test system: HeLa; test: Survival of human HeLa cells at 0.1 uM under deem light after 96 hrs by MTT assay relative to control; type: functional; settings: read-out: Survival
[3] = test system: HeLa; test: Survival of human HeLa cells at 10 uM under deem light after 96 hrs by MTT assay relative to control; type: functional; settings: read-out: Survival
[4] = test system: HeLa; test: Survival of human HeLa cells at 50 uM under deem light after 96 hrs by MTT assay relative to control; type: functional; settings: read-out: Survival
[5] = test system: HeLa; test: Survival of human HeLa cells at 100 uM under deem light after 96 hrs by MTT assay relative to control; type: functional; settings: read-out: Survival
[6] = test system: NCI-H69; test: Survival of human H69 cells at 0.01 uM under deem light after 96 hrs by MTT assay relative to control; type: functional; settings: NCI-H69, 96 h, read-out: Survival
[7] = test system: NCI-H69; test: Survival of human H69 cells at 0.1 uM under deem light after 96 hrs by MTT assay relative to control; type: functional; settings: NCI-H69, 96 h, read-out: Survival
[8] = test system: NCI-H69; test: Survival of human H69 cells at 10 uM under deem light after 96 hrs by MTT assay relative to control; type: functional; settings: NCI-H69, 96 h, read-out: Survival
[9] = test system: NCI-H69; test: Survival of human H69 cells at 50 uM under deem light after 96 hrs by MTT assay relative to control; type: functional; settings: NCI-H69, 96 h, read-out: Survival
[10] = test system: NCI-H69; test: Survival of human H69 cells at 100 uM under deem light after 96 hrs by MTT assay relative to control; type: functional; settings: NCI-H69, 96 h, read-out: Survival
[11] = Survival of human H209 cells at 0.01 uM under deem light after 96 hrs by MTT assay relative to control; type: functional; settings: NCI-H209, 96 h, read-out: Survival
[12] = Survival of human H209 cells at 0.1 uM under deem light after 96 hrs by MTT assay relative to control; type: functional; settings: NCI-H209, 96 h, read-out: Survival
[13] = Survival of human H209 cells at 10 uM under deem light after 96 hrs by MTT assay relative to control; type: functional; settings: NCI-H209, 96 h, read-out: Survival
[14] = Survival of human H209 cells at 50 uM under deem light after 96 hrs by MTT assay relative to control; type: functional; settings: NCI-H209, 96 h, read-out: Survival
[15] = Survival of human H209 cells at 100 uM under deem light after 96 hrs by MTT assay relative to control; type: functional; settings: NCI-H209, 96 h, read-out: Survival
[16] = Survival of human 2780.9S cells at 0.01 uM under deem light after 96 hrs by MTT assay relative to control; type: functional; settings: read-out: Survival
[17] = Survival of human 2780.9S cells at 0.1 uM under deem light after 96 hrs by MTT assay relative to control; type: functional; settings: read-out: Survival
[18] = Survival of human 2780.9S cells at 10 uM under deem light after 96 hrs by MTT assay relative to control; type: functional; settings: read-out: Survival
[19] = Survival of human 2780.9S cells at 50 uM under deem light after 96 hrs by MTT assay relative to control; type: functional; settings: read-out: Survival
[20] = Survival of human 2780.9S cells at 100 uM under deem light after 96 hrs by MTT assay relative to control; type: functional; settings: read-out: Survival
[21] = Survival of human MDA-MB cells at 0.01 uM under deem light after 96 hrs by MTT assay relative to control; type: functional; settings: read-out: Survival
[22] = Survival of human MDA-MB cells at 0.1 uM under deem light after 96 hrs by MTT assay relative to control; type: functional; settings: read-out: Survival
[23] = Survival of human MDA-MB cells at 10 uM under deem light after 96 hrs by MTT assay relative to control; type: functional; settings: read-out: Survival
[24] = Survival of human MDA-MB cells at 50 uM under deem light after 96 hrs by MTT assay relative to control; type: functional; settings: read-out: Survival
[25] = Survival of human MDA-MB cells at 100 uM under deem light after 96 hrs by MTT assay relative to control; type: functional; settings: read-out: Survival
[26] = test system: SiHa; test: Cytotoxicity against human SIHA cells under deem light after 96 hrs by MTT assay; type: functional, cell-based
[27] = test system: Raji; test: Cytotoxicity against human Raji cells under deem light after 96 hrs by MTT assay; type: functional, cell-based
[28] = Cytotoxicity against human MDA-MB cells under deem light after 96 hrs by MTT assay; type: functional, cell-based
[29] = test system: K562; test: Cytotoxicity against human K562 cells under deem light after 96 hrs by MTT assay; type: functional, cell-based; settings: K562, 96 h
[30] = test system: HeLa; test: Cytotoxicity against human HeLa cells under deem light after 96 hrs by MTT assay; type: functional, cell-based
[31] = test system: NCI-H69; test: Cytotoxicity against human H69 cells under deem light after 96 hrs by MTT assay; type: functional, cell-based; settings: NCI-H69, 96 h
[32] = test system: Daudi; test: Cytotoxicity against human Daudi cells under deem light after 96 hrs by MTT assay; type: functional, cell-based
[33] = Cytotoxicity against human 2780.9S cells under deem light after 96 hrs by MTT assay; type: functional, cell-based
[34] = Photohemolysis in human RBC in absence of light; type: ADME, cell-based; settings: erythrocyte
[35] = test system: SiHa; test: Survival of human SIHA cells at 0.1 uM under deem light after 96 hrs by MTT assay relative to control; type: functional; settings: read-out: Survival
[36] = test system: SiHa; test: Survival of human SIHA cells at 10 uM under deem light after 96 hrs by MTT assay relative to control; type: functional; settings: read-out: Survival
[37] = test system: SiHa; test: Survival of human SIHA cells at 50 uM under deem light after 96 hrs by MTT assay relative to control; type: functional; settings: read-out: Survival
[38] = test system: K562; test: Survival of human K562 cells at 0.01 uM under deem light after 96 hrs by MTT assay relative to control; type: functional; settings: K562, 96 h, read-out: Survival
[39] = test system: K562; test: Survival of human K562 cells at 0.1 uM under deem light after 96 hrs by MTT assay relative to control; type: functional; settings: K562, 96 h, read-out: Survival
[40] = test system: K562; test: Survival of human K562 cells at 10 uM under deem light after 96 hrs by MTT assay relative to control; type: functional; settings: K562, 96 h, read-out: Survival
[41] = test system: K562; test: Survival of human K562 cells at 50 uM under deem light after 96 hrs by MTT assay relative to control; type: functional; settings: K562, 96 h, read-out: Survival
[42] = test system: K562; test: Survival of human K562 cells at 100 uM under deem light after 96 hrs by MTT assay relative to control; type: functional; settings: K562, 96 h, read-out: Survival
[43] = test system: Raji; test: Survival of human Raji cells at 0.01 uM under deem light after 96 hrs by MTT assay relative to control; type: functional; settings: read-out: Survival
[44] = test system: Raji; test: Survival of human Raji cells at 0.1 uM under deem light after 96 hrs by MTT assay relative to control; type: functional; settings: read-out: Survival
[45] = test system: Raji; test: Survival of human Raji cells at 10 uM under deem light after 96 hrs by MTT assay relative to control; type: functional; settings: read-out: Survival
[46] = test system: Raji; test: Survival of human Raji cells at 50 uM under deem light after 96 hrs by MTT assay relative to control; type: functional; settings: read-out: Survival
[47] = test system: Raji; test: Survival of human Raji cells at 100 uM under deem light after 96 hrs by MTT assay relative to control; type: functional; settings: read-out: Survival

COc1cccc2c1C(=O)c1c(O)c3c(c(O)c1C2=O)C[C@@](O)(C(=O)CO)C[C@@H]3O[C@H]1C[C@H](N)[C@H](O)[C@H](C)O1 [DOXORUBICIN]
viability at 0.01 µM [1]: 97.5% | viability at 0.1 µM [2]: 81.4% | viability at 10 µM [3]: 20.2% | viability at 50 µM [4]: 7% | viability at 100 µM [5]: 6.1% | viability at 0.01 µM [6]: 86.5% | viability at 0.1 µM [7]: 82.2% | viability at 10 µM [8]: 37.7% | viability at 50 µM [9]: 16.8% | viability at 100 µM [10]: 6.6% | viability at 0.01 µM [11]: 85.6% | viability at 0.1 µM [12]: 85.6% | viability at 10 µM [13]: 23.1% | viability at 50 µM [14]: 5.8% | viability at 100 µM [15]: 1.5% | viability at 0.01 µM [16]: 108% | viability at 0.1 µM [17]: 105% | viability at 10 µM [18]: 56.9% | viability at 50 µM [19]: 13.8% | viability at 100 µM [20]: 7.4% | viability at 0.01 µM [21]: 121% | viability at 0.1 µM [22]: 96.8% | viability at 10 µM [23]: 50.5% | viability at 50 µM [24]: 11.8% | viability at 100 µM [25]: 5% | IC50 [26]: 500 nM | IC50 [27]: 2000 nM | IC50 [28]: 9000 nM | IC50 [29]: 1000 nM | IC50 [30]: 2000 nM | IC50 [31]: 3000 nM | IC50 [32]: 300 nM | IC50 [33]: 15000 nM | Activity [34]: Non-toxic | viability at 0.1 µM [35]: 72.2% | viability at 10 µM [36]: 4.4% | viability at 50 µM [37]: 3.5% | viability at 0.01 µM [38]: 116% | viability at 0.1 µM [39]: 100% | viability at 10 µM [40]: 22.1% | viability at 50 µM [41]: 9.5% | viability at 100 µM [42]: 7.5% | viability at 0.01 µM [43]: 110% | viability at 0.1 µM [44]: 106% | viability at 10 µM [45]: 8.6% | viability at 50 µM [46]: 2.5% | viability at 100 µM [47]: 1.1%
